Read-outs that look alike come from different tables or passages of the source.
What was measured:
[1] = biological target: T1, cytoplasmic domain of the human CSF-1R (Homo sapiens, UniProt P07333); experiment: In vitro kinase assay for colony stimulating factor-1 receptor (AlphaScreen); assay type: biochemical; details: tested at about 1 μM, read-out: CSF-1R percent inhibition
T1 construct: Recombinant protein corresponding to the cytoplasmic domain of the human CSF-1R; purchased Invitrogen Corporation, Carlsbad, Calif; PV3249
T1 sequence (P07333 539-972 limits assumed): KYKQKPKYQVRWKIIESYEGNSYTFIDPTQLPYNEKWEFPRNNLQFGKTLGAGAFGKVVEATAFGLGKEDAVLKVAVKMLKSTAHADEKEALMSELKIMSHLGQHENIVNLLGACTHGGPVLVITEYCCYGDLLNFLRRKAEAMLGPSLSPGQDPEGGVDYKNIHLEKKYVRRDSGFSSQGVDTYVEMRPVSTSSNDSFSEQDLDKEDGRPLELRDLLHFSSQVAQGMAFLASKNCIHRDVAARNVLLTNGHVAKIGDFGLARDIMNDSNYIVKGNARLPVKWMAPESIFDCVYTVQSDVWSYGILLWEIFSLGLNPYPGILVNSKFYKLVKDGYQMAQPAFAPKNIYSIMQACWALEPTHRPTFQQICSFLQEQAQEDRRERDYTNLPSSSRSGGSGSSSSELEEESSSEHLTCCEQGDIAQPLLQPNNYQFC
In short: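 Test compounds, serially diluted threefold starting at 25 μM, were mixed with Hepes buffer (pH 7.5, Mg2+/Mn2+, DTT, BSA, Tween 80) containing 1 μM ATP. Recombinant kinase was present at 4 nM. After stopping, beads were added and plates were read the next day by AlphaScreen.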

kinase domain of cKIT = biological target: T2, kinase domain of cKIT (Homo sapiens, UniProt P10721); experiment: Inhibition of cKIT kinase signaling in an in vitro biochemical assay (alphascreen); details: tested at about 1 μM, read-out: cKit percent inhibition
T2 construct: The kinase domain of cKIT was assayed in 50 mM Hepes; purchased Upstate 14-559

kinase domain of PDGFRβ = biological target: T3, kinase domain of PDGFRβ (Homo sapiens, UniProt P09619); experiment: Inhibition of PDGFRb kinase signaling in an in vitro biochemical assay (alphascreen); details: tested at about 1 μM, read-out: PDGFRβ percent inhibition
T3 construct: The kinase domain of PDGFRβ was assayed in 50 mM Hepes; purchased Invitrogen P3082

[2] = system: MNFS60 (murine AML cells); experiment: Cell viability assay in MCSF dependent MNFS60 cells (Cell Titer Glo); assay type: cell-based; details: Mus musculus, tested at about 1 μM, read-out: M-NFS-60 CP percent inhibition
In short: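 Three-fold serial compound dilutions, prepared in DMSO at 500× the final level, were applied alongside MCSF (final 10 ng/ml). Incubation lasted 72 hrs (37° C., 5% CO2) before CellTiter-Glo addition. Triplicate points were curve-fitted for EC50.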

T3 sequence (P09619 600-962 limits assumed): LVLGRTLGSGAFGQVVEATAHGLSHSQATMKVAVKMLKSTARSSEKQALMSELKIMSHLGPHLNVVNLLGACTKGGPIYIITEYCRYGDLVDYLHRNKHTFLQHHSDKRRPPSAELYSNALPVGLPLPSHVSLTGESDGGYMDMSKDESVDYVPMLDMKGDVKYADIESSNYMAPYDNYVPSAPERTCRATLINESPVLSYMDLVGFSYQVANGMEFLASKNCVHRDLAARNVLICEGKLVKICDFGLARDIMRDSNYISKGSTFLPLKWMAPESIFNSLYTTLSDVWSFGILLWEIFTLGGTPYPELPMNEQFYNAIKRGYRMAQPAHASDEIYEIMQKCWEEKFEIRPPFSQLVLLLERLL
T2 sequence (P10721 589-937 limits assumed): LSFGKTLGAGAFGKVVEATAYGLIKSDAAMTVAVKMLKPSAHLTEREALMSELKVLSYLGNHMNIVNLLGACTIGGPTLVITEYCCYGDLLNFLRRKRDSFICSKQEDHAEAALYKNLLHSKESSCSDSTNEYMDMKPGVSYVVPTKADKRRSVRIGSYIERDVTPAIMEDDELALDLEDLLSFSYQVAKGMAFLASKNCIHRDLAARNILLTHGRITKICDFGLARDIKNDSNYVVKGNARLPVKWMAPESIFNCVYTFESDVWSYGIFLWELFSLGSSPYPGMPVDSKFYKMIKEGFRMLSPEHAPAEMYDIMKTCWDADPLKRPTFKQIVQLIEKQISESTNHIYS

SMILES | inhibition at 1 µM [1] [%] | inhibition at 1 µM (kinase domain of cKIT) [%] | inhibition at 1 µM (kinase domain of PDGFRβ) [%] | inhibition at 1 µM ([1]; compounds of Table 3) [%] | inhibition at 1 µM (kinase domain of cKIT; compounds of Table 3) [%] | inhibition at 1 µM (kinase domain of PDGFRβ; compounds of Table 3) [%] | inhibition at 1 µM ([2]; MNFS60 cells) [%] | inhibition at 1 µM ([2]; MCSF dependent MNFS60 cells) [%] | inhibition at 1 µM ([2]; compounds of Table 3) [%]
CNC(=O)c1cc(Oc2ccc3nc(NCc4ccccc4N(C)C)sc3c2)ccn1 [Compound 144, 4-[2-(2-Dimethylamino-benzylamino)-benzothiazol-6-yloxy]-pyridine-2-carboxylic acid methylamide] | 99 | 100 | 100 | – | – | – | 100 | – | –
CNC(=O)c1cc(Oc2ccc3nc(NCc4cc(Cl)ccc4OC)oc3c2)ccn1 [Compound 114, 4-[2-(5-Chloro-2-methoxy-benzylamino)-benzooxazol-6-yloxy]-pyridine-2-carboxylic acid methylamide] | 100 | 92 | 15 | – | – | – | 36 | – | –
CC(C)(C)OC(=O)NNC(=O)c1cc(Oc2ccc3nc(NCC4CCCCC4)oc3c2)ccn1 [Compound 68, N'-{4-[2-(Cyclohexylmethyl-amino)-benzooxazol-6-yloxy]-pyridine-2-carbonyl}-hydrazinecarboxylic acid tert-butyl ester] | 99 | 6 | 3 | – | – | – | 18 | – | –
FC(F)Oc1ccccc1CNc1nc2ccc(Oc3ccnc4ccccc34)cc2s1 [Example 246, N-(2-(difluoromethoxy)benzyl)-6-(quinolin-4-yloxy)benzo[d]thiazol-2-amine] | – | – | – | 100 | 100 | 82 | – | – | 100
CNC(=O)c1cc(Oc2ccc3nc(NCc4ccncc4)oc3c2)ccn1 [Compound 57, 4-{2-[(Pyridin-4-ylmethyl)-amino]-benzooxazol-6-yloxy}-pyridine-2-carboxylic acid methylamide] | 97 | 35 | 3 | – | – | – | 35 | – | –
CNC(=O)c1cc(Oc2ccc3nc(NCCc4cccc5c4OCCO5)oc3c2)ccn1 [Compound 123, 4-{2-[2-(2,3-Dihydro-benzo-[1,4]dioxin-5-yl)-ethylamino]-benzooxazol-6-yloxy}-pyridine-2-carboxylic acid methylamide] | 99 | 15 | 2 | – | – | – | 0 | – | –
CNC(=O)c1cc(Oc2ccc3nc(NCc4c(OC)cc(OC)cc4OC)oc3c2)ccn1 [Compound 113, 4-[2-(2,4,6-Trimethoxy-benzylamino)-benzooxazol-6-yloxy]-pyridine-2-carboxylic acid methylamide] | 97 | 7 | 17 | – | – | – | 19 | – | –
CNC(=O)c1cc(Oc2ccc3nc(NCC(O)COc4ccccc4)sc3c2)ccn1 (stereo not drawn) [Compound 124] | – | – | – | 99 | 0 | 10 | – | – | 18
CC(C)CCNc1nc2ccc(Oc3ccnc4ccccc34)cc2s1 [Example 253, N-isopentyl-6-(quinolin-4-yloxy)benzo[d]thiazol-2-amine] | – | – | – | 100 | 100 | 6 | – | – | 86

Further lines, with some results ahead:

inhibition at 1 µM [1] [%] | inhibition at 1 µM (kinase domain of cKIT) [%] | inhibition at 1 µM (kinase domain of PDGFRβ) [%] | inhibition at 1 µM ([1]; compounds of Table 3) [%] | inhibition at 1 µM (kinase domain of cKIT; compounds of Table 3) [%] | inhibition at 1 µM (kinase domain of PDGFRβ; compounds of Table 3) [%] | SMILES | inhibition at 1 µM ([2]; MNFS60 cells) [%] | inhibition at 1 µM ([2]; MCSF dependent MNFS60 cells) [%] | inhibition at 1 µM ([2]; compounds of Table 3) [%]
100 | 100 | 100 | – | – | – | Cn1cc(-c2cc(Oc3ccc4nc(N[C@H](CO)C5CCCCC5)sc4c3)ccn2)cn1 [Example 353, (S)-2-cyclohexyl-2-(6-(2-(1-methyl-1H-pyrazol-4-yl)pyridin-4-yloxy)benzo[d]thiazol-2-ylamino)ethanol] | – | 100 | –
100 | 98 | 79 | – | – | – | Cn1cc(-c2cc(Oc3ccc4nc(N[C@H](CO)Cc5ccccc5)sc4c3)ccn2)cn1 [Example 351, (S)-2-(6-(2-(1-methyl-1H-pyrazol-4-yl)pyridin-4-yloxy)benzo[d]thiazol-2-ylamino)-3-phenylpropan-1-ol] | – | 100 | –
100 | 9 | 18 | – | – | – | CNC(=O)c1cc(Oc2ccc3nc(N[C@H]4CCCN(C(C)=O)C4)sc3c2)ccn1 [Example 304, (S)-4-(2-(1-acetylpiperidin-3-ylamino)benzo[d]thiazol-6-yloxy)-N-methylpicolinamide] | – | 23 | –
100 | 100 | 99 | – | – | – | CC(C)C[C@@H](CO)Nc1nc2ccc(Oc3ccnc(-c4cnn(C)c4)c3)cc2s1 [Example 358, (S)-4-methyl-2-(6-(2-(1-methyl-1H-pyrazol-4-yl)pyridin-4-yloxy)benzo[d]thiazol-2-ylamino)pentan-1-ol] | – | 100 | –
– | – | – | 99 | 28 | 2 | C[C@H](Nc1nc2ccc(Oc3ccnc(C(=O)NN(C)C)c3)cc2s1)C1CCCCC1 [Example 289, (S)-4-(2-(1-cyclohexylethylamino)benzo[d]thiazol-6-yloxy)-N',N'-dimethylpicolinohydrazide] | – | – | 0
100 | 16 | 20 | – | – | – | CNC(=O)c1cc(Oc2ccc3nc(N[C@H]4CCC[C@@H]4O)sc3c2)ccn1 [Example 320, 4-(2-((1S,2S)-2-hydroxycyclopentylamino)benzo[d]thiazol-6-yloxy)-N-methylpicolinamide] | – | 25 | –
100 | 27 | 43 | – | – | – | CNC(=O)c1cc(Oc2ccc3nc(N[C@H]4[C@H]5CC[C@H](C5)[C@H]4CO)sc3c2)ccn1 [Example 325, 4-(2-((1S,3R,4R)-3-(hydroxymethyl)bicyclo[2.2.1]heptan-2-ylamino)benzo[d]thiazol-6-yloxy)-N-methylpicolinamide] | – | 66 | –
– | – | – | 100 | 100 | 25 | O[C@@H]1Cc2ccccc2[C@@H]1Nc1nc2ccc(Oc3ccnc4ccccc34)cc2s1 [Example 239, (1S,2R)-1-(6-(quinolin-4-yloxy)benzo[d]thiazol-2-ylamino)-2,3-dihydro-1H-inden-2-ol] | – | – | 90
99 | 13 | 12 | – | – | – | CNC(=O)c1cc(Oc2ccc3nc(NCCc4ccccn4)sc3c2)ccn1 [Example 314, N-methyl-4-(2-(2-(pyridin-2-yl)ethylamino)benzo[d]thiazol-6-yloxy)picolinamide] | – | 20 | –
99 | 18 | 11 | – | – | – | CNC(=O)c1cc(Oc2ccc3nc(N[C@H]4CCC[C@H]4O)sc3c2)ccn1 [Example 322, 4-(2-((1S,2R)-2-hydroxycyclopentylamino)benzo[d]thiazol-6-yloxy)-N-methylpicolinamide] | – | 21 | –
– | – | – | 100 | 97 | 88 | N#Cc1ccc2c(Oc3ccc4nc(NCC5CCCCC5)sc4c3)ccnc2c1 [Example 221, 4-(2-(cyclohexylmethylamino)benzo[d]thiazol-6-yloxy)quinoline-7-carbonitrile] | – | – | 52
– | – | – | 100 | 78 | 24 | O[C@@H]1CCCC[C@H]1Nc1nc2ccc(Oc3ccnc(-c4ccc(F)cc4)c3)cc2s1 [Example 288, (1R,2R)-2-(6-(2-(4-fluorophenyl)pyridin-4-yloxy)benzo[d]thiazol-2-ylamino)cyclohexanol] | – | – | 70

— patent US8173689B2 (Novartis AG, priority 2006, dated 2012)
